Test results published in US20170050957A1, “4-AMINO-6-(HETEROCYCLIC)PICOLINATES AND 6-AMINO-2-(HETEROCYCLIC)PYRIMIDINE-4-CARBOXYLATES AND THEIR USE AS HERBICIDES” (Dow AgroSciences LLC, priority 2013, published 2017).
Where two headings read alike, the source gives them in different places.

Columns and labels:
[1] = test system: Key Broadleaf Weed and Crop Species; experiment: Post-emergent Test II herbicidal activity (Table 15); assay type: in vivo; conditions: post-emergence, 336 h, 14 d; for pest or weed control at 35 g/ha: 35 g ai/ha; for pest or weed control at 70 g/ha: 70 g ai/ha; for pest or weed control at 140 g/ha: 140 g ai/ha; for pest or weed control at 280 g/ha: 280 g ai/ha
In short: (§1)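 Post-emergence spray; seedlings 7-21 d old, 1st-2nd true leaf; 187 L/ha; serial rates 1×-1/16×; solvent blank controls; subirrigated; visual % injury at 14 d.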

[2] = test system: Key Grass and Sedge Weeds as well as Grass Crops; experiment: Post-emergent Test II herbicidal activity (Table 16); assay type: in vivo; conditions: post-emergence, 336 h, 14 d; for pest or weed control at 35 g/ha: 35 g ai/ha; for pest or weed control at 70 g/ha: 70 g ai/ha; for pest or weed control at 140 g/ha: 140 g ai/ha; for pest or weed control at 280 g/ha: 280 g ai/ha
In short: as §1

[3] = Abutilon theophrasti, velvetleaf (Abutilon theophrasti), read-out: Visual Growth Reduction (%) 14 Days After Application, ABUTH
[4] = Amaranthus retroflexus, redroot pigweed (Amaranthus retroflexus), read-out: Visual Growth Reduction (%) 14 Days After Application, AMARE
[5] = Brassica napus, oilseed rape, canola (Brassica napus), read-out: Visual Growth Reduction (%) 14 Days After Application, BRSNN
[6] = Chenopodium album, lambsquarters (Chenopodium album), read-out: Visual Growth Reduction (%) 14 Days After Application, CHEAL
[7] = Euphorbia heterophylla, wild poinsettia (Euphorbia heterophylla), read-out: Visual Growth Reduction (%) 14 Days After Application, EPHHL
[8] = Helianthus annuus, sunflower (Helianthus annuus), read-out: Visual Growth Reduction (%) 14 Days After Application, HELAN
[9] = Cyperus esculentus, yellow nutsedge (Cyperus esculentus), read-out: Visual Growth Reduction (%) 14 Days After Application, CYPES
[10] = Echinochloa crus-galli, barnyardgrass (Echinochloa crus-galli), read-out: Visual Growth Reduction (%) 14 Days After Application, ECHCG
[11] = Oryza sativa, rice (Oryza sativa), read-out: Visual Growth Reduction (%) 14 Days After Application, ORYSA
[12] = Setaria faberi, giant foxtail (Setaria faberi), read-out: Visual Growth Reduction (%) 14 Days After Application, SETFA
[13] = Triticum aestivum, wheat, spring (Triticum aestivum), read-out: Visual Growth Reduction (%) 14 Days After Application, TRZAS
[14] = Zea mays, maize, corn (Zea mays), read-out: Visual Growth Reduction (%) 14 Days After Application, ZEAMX

Question: What does the source list for `COC(=O)c1nc(-c2ccc3occc3c2)cc(N)c1Cl` [Compound 2.03]?
Answer: pest or weed control at 35 g/ha [1, 3]: 95 to 100%; pest or weed control at 70 g/ha [1, 3]: 95 to 100%; pest or weed control at 140 g/ha [1, 3]: 95 to 100%; pest or weed control at 280 g/ha [1, 3]: 95 to 100%; pest or weed control at 35 g/ha [1, 4]: 60 to 74%; pest or weed control at 70 g/ha [1, 4]: 85 to 94%; pest or weed control at 140 g/ha [1, 4]: 85 to 94%; pest or weed control at 280 g/ha [1, 4]: 95 to 100%; pest or weed control at 35 g/ha [1, 5]: 0 to 29%; pest or weed control at 70 g/ha [1, 5]: 0 to 29%; pest or weed control at 140 g/ha [1, 5]: 0 to 29%; pest or weed control at 280 g/ha [1, 5]: 30 to 44%; pest or weed control at 35 g/ha [1, 6]: 85 to 94%; pest or weed control at 70 g/ha [1, 6]: 95 to 100%; pest or weed control at 140 g/ha [1, 6]: 95 to 100%; pest or weed control at 280 g/ha [1, 6]: 95 to 100%; pest or weed control at 35 g/ha [1, 7]: 45 to 59%; pest or weed control at 70 g/ha [1, 7]: 75 to 84%; pest or weed control at 140 g/ha [1, 7]: 75 to 84%; pest or weed control at 280 g/ha [1, 7]: 85 to 94%; pest or weed control at 35 g/ha [1, 8]: 0 to 29%; pest or weed control at 70 g/ha [1, 8]: 60 to 74%; pest or weed control at 140 g/ha [1, 8]: 75 to 84%; pest or weed control at 280 g/ha [1, 8]: 85 to 94%; pest or weed control at 35 g/ha [2, 9]: 0 to 29%; pest or weed control at 70 g/ha [2, 9]: 0 to 29%; pest or weed control at 140 g/ha [2, 9]: 0 to 29%; pest or weed control at 280 g/ha [2, 9]: 0 to 29%; pest or weed control at 35 g/ha [2, 10]: 30 to 44%; pest or weed control at 70 g/ha [2, 10]: 60 to 74%; pest or weed control at 140 g/ha [2, 10]: 85 to 94%; pest or weed control at 280 g/ha [2, 10]: 95 to 100%; pest or weed control at 35 g/ha [2, 11]: 0 to 29%; pest or weed control at 70 g/ha [2, 11]: 0 to 29%; pest or weed control at 140 g/ha [2, 11]: 0 to 29%; pest or weed control at 280 g/ha [2, 11]: 0 to 29%; pest or weed control at 35 g/ha [2, 12]: 0 to 29%; pest or weed control at 70 g/ha [2, 12]: 0 to 29%; pest or weed control at 140 g/ha [2, 12]: 30 to 44%; pest or weed control at 280 g/ha [2, 12]: 30 to 44%; pest or weed control at 35 g/ha [2, 13]: 0 to 29%; pest or weed control at 70 g/ha [2, 13]: 0 to 29%; pest or weed control at 140 g/ha [2, 13]: 0 to 29%; pest or weed control at 280 g/ha [2, 13]: 0 to 29%; pest or weed control at 35 g/ha [2, 14]: 0 to 29%; pest or weed control at 70 g/ha [2, 14]: 0 to 29%; pest or weed control at 140 g/ha [2, 14]: 0 to 29%; pest or weed control at 280 g/ha [2, 14]: 60 to 74%; melting point: 84 to 87 °C
